Measurements taken from US11571407B2, “Bicalutamide analogs or (S)-bicalutamide as exocytosis activating compounds for use in the treatment of a lysosomal storage disorder or glycogenosis” (BCN PEPTIDES, S.A., priority 2013, dated 2023).
Marks after values point to notes of the source that are not given here.

Experiments:
[1] = tested on: fibroblasts from patients affected by different lysosomal storage diseases; assay: Determination of glycosaminoglycans (GAGs), 1,9-dimethylmethylene blue (DMB) assay; format: cell-based, human; details: vs untreated
Protocol: (§1) Fibroblasts from thirteen patients affected by seven different lysosomal storage diseases (Fabry, Gaucher, Hurler, Niemann-Pick type A/B, Sanfilippo A, Sanfilippo B and Tay-Sachs) were cultured in DMEM (Dulbecco's modified Eagles medium) with 10% fetal bovine serum and in the presence of antibiotics (penicillin and streptomycin), at 37° C. with 5% CO2. All reagents were purchased from PAA Laboratories (Velizy-Villacoublay, France). The fibroblasts of the patients were selected on the basis of availability of fibroblasts and measurable residual activity. The use of human samples was approved by the Ethical Committee of Hospital Clinic, Barcelona
Glycobiology. […] The fibroblasts were cultured in triplicate in 6-well plates and they were harvested 72 hours after treatment. DMB absorbance was measured in duplicate at 656 nm with a microplate reader (POLARstar Omega, BMG LABTECH, Offenburg, Germany).
Fibroblasts from three patients affected by Sanfilippo B disease and one patient affected by Hurler disease were treated with increasing concentrations of bicalutamide (racemic mixture at increasing concentrations of 0.01, 0.1, 1, 10 and 100 μM). Glycosaminoglycans (GAGs) levels were quantified with the 1,9-dimethylmethylene blue (DMB) assay.
Fibroblasts from seven patients affected by different diseases derived from lysosomal storage (three Sanfilippo B disease patients with different genotypes, one Sanfilippo A disease patient, one Tay-Sachs disease patient, one Niemann-Pick type A/B disease patient and one Hurler disease patient) were independently treated with different concentrations of (R)- and (S)-bicalutamide (50 and 100 μM).

[2] = tested on: fibroblasts from patients affected by different lysosomal storage diseases; assay: Determination of lysosomal exocytosis (β-hexosaminidase activity in the culture medium); format: cell-based, human; details: vs untreated
Protocol: as §1
Fibroblasts cultured for 72 h in 24 well-plates in the presence or absence of bicalutamide, (S)-bicalutamide, (S)-bicalutamide analogs or (R)-bicalutamide at different concentrations in triplicate (10 nmol/L, 100 nmol/L, 1 μmol/L, 10 μmol/L, 50 μmol/L and 100 μmol/L), were rinsed with physiological saline. The cells were lysed by using 3 freeze-thaw cycles. Then protein concentration was determined by using the Lowry method. Protein lysates (10 μg) were seeded in 96-well plates and the enzymatic activity of the enzyme involved in each disease was determined in triplicate by means of fluorimetric artificial substrates: 4-methylumbelliferyl-α-N-sulphoglucosaminide for Sanfilippo A, 4-methylumbelliferyl-2-acetamido-2 deoxy-α-D-glucopyranoside for Sanfilippo B, 4-methylumbelliferyl-α-L-iduronide for Hurler, 4-methylumbelliferyl-N-acetyl-β-D-glucosaminide for Tay-sachs, 4-methylumbelliferyl-β-D-glucopyranoside for Gaucher, 4-methylumbelliferyl-α-Galactopiranosid for Fabry disease, and 6-hexadecanoylamino-4-methylumbelliferyl-P-colline for Niemann-Pick type AB. The activity of the enzyme β-hexosaminidase was assayed by using 4-methylumbelliferyl-2 acetamido-2 deoxy-β-D-glucopyranoside as artificial substrate [Annunziata et al., Study of influence of sex and age on human serum lysosomal enzymes by using 4-methylumbelliferyl substrates. Clin. Chim. Acta.
Lysosomal exocytosis was monitorized by measuring the enzymatic activity of the lysosomal enzyme β-hexosaminidase in the culture medium [Xu M, et al, δ-Tocopherol reduces lipid accumulation in Niemann-Pick type C1 and Wolman cholesterol storage disorders. […] The fibroblasts were previously treated with different concentrations of bicalutamide, (S)-bicalutamide or (R)-bicalutamide (10 nmol/L, 100 nmol/L, 1 μmol/L, 10 μmol/L, 50 μmol/L and 100 μmol/L) in triplicate in 24-well plates. At 0, 24, 48 and 72 hours, 30 μL of culture medium was aliquoted for the subsequent β-hexosaminidase activity assay.
Fibroblasts from two patients affected by Sanfilippo B and Hurler diseases were treated with different concentrations of bicalutamide (racemic mixture at increasing concentrations of 0.01, 0.1, 1, 10 and 100 μM). And the increase in lysosomal exocytosis was determined by analyzing the enzymatic activity of the lysosomal enzyme β-hexosaminidase in the culture medium.
Fibroblasts from thirteen patients affected by different lysosomal storage diseases (four Sanfilippo B disease patients with different genotypes, three Sanfilippo A disease patients with different genotypes, two Tay-Sachs disease patients with the same genotype, one Gaucher disease patient, one Niemann-pick type A/B disease patient, one Hurler disease patient, and one Fabry disease patient) were independently treated with different concentrations of (R)- and (S)-bicalutamide (50 and 100 μM) for 72 hours.

CC(O)(CS(=O)(=O)c1ccc(F)cc1)C(=O)Nc1ccc(C#N)c(C(F)(F)F)c1 (racemic) [Racemic Bicalutamide]
Decrease of GAGs (%) ([1]; Table 2 patient 1, Sanfilippo B fibroblasts, 10 nM): 17%
Decrease of GAGs (%) ([1]; Table 2 patient 1, Sanfilippo B fibroblasts, 100 nM): 25%
Decrease of GAGs (%) ([1]; Table 2 patient 1, Sanfilippo B fibroblasts, 1 μM): 17%
Decrease of GAGs (%) ([1]; Table 2 patient 1, Sanfilippo B fibroblasts, 10 μM): 22* %
Decrease of GAGs (%) ([1]; Table 2 patient 1, Sanfilippo B fibroblasts, 100 μM): 54* %
Decrease of GAGs (%) ([1]; Table 2 patient 2, Sanfilippo B fibroblasts, 10 nM): 0%
Decrease of GAGs (%) ([1]; Table 2 patient 2, Sanfilippo B fibroblasts, 100 nM): 16%
Decrease of GAGs (%) ([1]; Table 2 patient 2, Sanfilippo B fibroblasts, 1 μM): 0%
Decrease of GAGs (%) ([1]; Table 2 patient 2, Sanfilippo B fibroblasts, 10 μM): 0%
Decrease of GAGs (%) ([1]; Table 2 patient 2, Sanfilippo B fibroblasts, 100 μM): 20%
Decrease of GAGs (%) ([1]; Table 2 patient 3, Sanfilippo B fibroblasts, 10 nM): 53%
Decrease of GAGs (%) ([1]; Table 2 patient 3, Sanfilippo B fibroblasts, 100 nM): 13%
Decrease of GAGs (%) ([1]; Table 2 patient 3, Sanfilippo B fibroblasts, 1 μM): 33%
Decrease of GAGs (%) ([1]; Table 2 patient 3, Sanfilippo B fibroblasts, 10 μM): 33%
Decrease of GAGs (%) ([1]; Table 2 patient 3, Sanfilippo B fibroblasts, 100 μM): 0%
Decrease of GAGs (%) ([1]; Table 2 patient 4, Hurler fibroblasts, 10 nM): 0%
Decrease of GAGs (%) ([1]; Table 2 patient 4, Hurler fibroblasts, 100 nM): 0%
Decrease of GAGs (%) ([1]; Table 2 patient 4, Hurler fibroblasts, 1 μM): 0%
Decrease of GAGs (%) ([1]; Table 2 patient 4, Hurler fibroblasts, 10 μM): 0%
Decrease of GAGs (%) ([1]; Table 2 patient 4, Hurler fibroblasts, 100 μM): 0%
Decrease of GAGs (%) ([1]; Table 2 patient 5, Control fibroblasts, 10 nM): 0%
Decrease of GAGs (%) ([1]; Table 2 patient 5, Control fibroblasts, 100 nM): 0%
Decrease of GAGs (%) ([1]; Table 2 patient 5, Control fibroblasts, 1 μM): 0%
Decrease of GAGs (%) ([1]; Table 2 patient 5, Control fibroblasts, 10 μM): 0%
Decrease of GAGs (%) ([1]; Table 2 patient 5, Control fibroblasts, 100 μM): 0%
Increase in lysosomal Exocytosis (%) ([2]; Table 1 patient 1, Sanfilippo B fibroblasts, 10 nM): 31* %
Increase in lysosomal Exocytosis (%) ([2]; Table 1 patient 1, Sanfilippo B fibroblasts, 100 nM): 23* %
Increase in lysosomal Exocytosis (%) ([2]; Table 1 patient 1, Sanfilippo B fibroblasts, 1 μM): 49%
Increase in lysosomal Exocytosis (%) ([2]; Table 1 patient 1, Sanfilippo B fibroblasts, 10 μM): 45%
Increase in lysosomal Exocytosis (%) ([2]; Table 1 patient 1, Sanfilippo B fibroblasts, 100 μM): 100* %
Increase in lysosomal Exocytosis (%) ([2]; Table 1 patient 2, Hurler fibroblasts, 10 nM): 14%
Increase in lysosomal Exocytosis (%) ([2]; Table 1 patient 2, Hurler fibroblasts, 100 nM): 13%
Increase in lysosomal Exocytosis (%) ([2]; Table 1 patient 2, Hurler fibroblasts, 1 μM): 9%
Increase in lysosomal Exocytosis (%) ([2]; Table 1 patient 2, Hurler fibroblasts, 10 μM): 3%
Increase in lysosomal Exocytosis (%) ([2]; Table 1 patient 2, Hurler fibroblasts, 100 μM): 8%
Increase in lysosomal Exocytosis (%) ([2]; Table 1 patient 3, Control fibroblasts, 10 nM): 0%
Increase in lysosomal Exocytosis (%) ([2]; Table 1 patient 3, Control fibroblasts, 100 nM): 27%
Increase in lysosomal Exocytosis (%) ([2]; Table 1 patient 3, Control fibroblasts, 1 μM): 13%
Increase in lysosomal Exocytosis (%) ([2]; Table 1 patient 3, Control fibroblasts, 10 μM): 12* %
Increase in lysosomal Exocytosis (%) ([2]; Table 1 patient 3, Control fibroblasts, 100 μM): 13* %
